Assay: DVS (Dynamic Vapor Sorption) moisture sorption/desorption
Format: physicochemical
Details: 25° C.
Procedure: DVS (Dynamic Vapor Sorption)
Around 20 mg of samples were used to test its moisture sorption/desorption profiles at 25° C. under 0%˜95%˜0% relative humidity (RH) cycle with the following parameters:
Equilibrium: dm/dt: 0.01%/min.
RH (%) measurement step scope: 0%95%0%; RH (%) measurement step: 5%

- moisture at 80% RH (DVS): 3.175%
- Hygroscopicity Classification (DVS) (80% RH): hygroscopic
Compound: Cc1sc2ccn(Cc3ccc(C(F)(F)F)cc3)c2c1C(=O)NC1(c2ccc(C(=O)O)cc2)CC1 [C003 free acid, 4-(1-{[2-Methyl-4-(4-trifluoromethyl-benzyl)-4H-thieno[3,2-b]pyrrole-3-carbonyl]-amino}-cyclopropyl)-benzoic acid]

From US12240860B2, “Heterobicyclic carboxylic acids and salts thereof” (SHENZHEN IONOVA LIFE SCIENCE CO., LTD., priority 2018, dated 2025)
